The values below come from patent publication US20250283873A1, “NERVOUS SYSTEM CELL-CONTAINING SPHEROID, METHOD FOR PRODUCING NERVOUS SYSTEM CELL-CONTAINING SPHEROID, AND METHOD FOR EVALUATING TEST SUBSTANCE” (Ricoh Company, Ltd., priority 2024, published 2025).

The subject of experiment [1] is 3D spheroid-cultured nerve cells (human iPSC-derived nerve cells and human-derived primary cultured astrocytes). Briefly: Calcium assay in 3D spheroid-cultured nerve cells (number of calcium spikes). In kind it is cell-based. Conditions: for relative value (log 2) of a change in number of the calcium spikes (DMSO = 0) / relative value of the number of the calcium spikes (DMSO set to 100%): cultured 5 weeks; for relative value (log 2) of a change in number of the calcium spikes (DMSO = 0): Experimental Examples 4-9, FIG. 4-9.
Source text: Human iPSC-derived nerve cells (Excitatory Neurons, Elixirgen Scientific, Inc.) and human-derived primary cultured astrocytes (ScienCell Research Laboratories, Inc.) were mixed so that the number of cells per well was 8,000 for the nerve cells and 8,000 for the astrocytes, and seeded on a plate for producing a spheroid. As the culture medium, Neurobasal Plus (Thermo Fisher Scientific, Inc.) to which B-27 Plus Supplement (Thermo Fisher Scientific, Inc.), Glutamax (Thermo Fisher Scientific, Inc.), 200 μM ascorbic acid (FUJIFILM Wako Pure Chemical Corporation), and a 10% Neuron Culture medium (FUJIFILM Wako Pure Chemical Corporation) had been added was used. Subsequently, the cells were cultured for 6 weeks and a calcium assay which will be described later was performed.
In the case of the 3D spheroid-cultured nerve cells, each spheroid was transferred to a plate for measurement, a calcium-sensitive fluorescent dye (Cal-520AM, (AAT Bioquest, Inc.)), Pluronic F-127 (AAT Bioquest, Inc.), and the drug were added to the culture medium, and the fluorescence was measured at intervals of 0.5 seconds for 20 minutes using a fluorescence plate reader to measure the calcium spikes.
By setting the proportion of the change in number of the calcium spikes in a case where dimethyl sulfoxide (DMSO) used as a solvent for the drug was added to 0%, in a case where the number of the calcium spikes increased due to the addition of the drug, the value is shown to be positive, and in a case where the number of the calcium spikes decreased due to the addition of the drug, the value is shown to be negative.
A calcium assay was performed in the presence of a drug, using spheroids with different numbers of cells, and the drug responsiveness of the nerve cells was examined. Human iPSC-derived nerve cells (Excitatory Neurons, Elixirgen Scientific, Inc.) and human-derived primary cultured astrocytes (ScienCell Research Laboratories, Inc.) were mixed so that the number of cells per well was 8,000 for the nerve cells and 8,000 for the astrocytes, 4,000 for the nerve cells and 4,000 for the astrocytes, or 2,000 for the nerve cells and 2,000 for the astrocytes, and seeded on a plate for producing a spheroid. As the culture medium, Neurobasal Plus (Thermo Fisher Scientific, Inc.) to which B-27 Plus Supplement (Thermo Fisher Scientific, Inc.), Glutamax (Thermo Fisher Scientific, Inc.), 200 μM ascorbic acid (FUJIFILM Wako Pure Chemical Corporation), and a 10% Neuron Culture medium (FUJIFILM Wako Pure Chemical Corporation) had been added was used. Subsequently, the cells were cultured for 5 weeks, and a calcium assay was performed in the same manner as in Experimental Example 1. Chlorpromazine was used as the drug.
The values in the graph indicate the mean value±the standard deviation. The horizontal axis of the graph indicates the concentration of chlorpromazine in the culture medium, and the vertical axis of the graph indicates a relative value of the number of the calcium spikes in a case where dimethyl sulfoxide (DMSO) used as a solvent for the drug was added, with the number of the calcium spikes set to 100%. […] 0% indicates a state in which the calcium spikes completely disappear.
A calcium assay was performed in the same manner as in Experimental Example 2, except that the drug was changed to GABA and the number of cells constituting the spheroid was changed to 16,000 or 4,000, and the drug responsiveness of the nerve cells was examined.

In experiment [2] the test system is 2D-cultured nerve cells (human iPSC-derived nerve cells and human-derived primary cultured astrocytes). Briefly: Calcium assay in 2D-cultured nerve cells (number of calcium spikes). In kind it is cell-based. Conditions: cultured 6 weeks, Experimental Example 1, FIG. 1. On the procedure: Human iPSC-derived nerve cells (Excitatory Neurons, Elixirgen Scientific, Inc.) and human-derived primary cultured astrocytes (ScienCell Research Laboratories, Inc.) were seeded in a 384-well plate so that the number of cells per well was 10,000 for the nerve cells and 2,500 for the astrocytes. As the culture medium, Neurobasal Plus (Thermo Fisher Scientific, Inc.) to which B-27 Plus Supplement (Thermo Fisher Scientific, Inc.), Glutamax (Thermo Fisher Scientific, Inc.), 200 µM ascorbic acid (FUJIFILM Wako Pure Chemical Corporation), and a 10% Neuron Culture medium (FUJIFILM Wako Pure Chemical Corporation) had been added was used. Subsequently, the cells were cultured for 6 weeks and a calcium assay which will be described later was performed.
A calcium assay was performed in the presence of a drug to examine the drug responsiveness of the 2D-cultured nerve cells and the 3D spheroid-cultured nerve cells. Chlorpromazine was used as the drug.
In the case of the 2D-cultured nerve cells, a calcium-sensitive fluorescent dye (Cal-520AM, AAT Bioquest, Inc.) and a drug were added to the culture medium, and the fluorescence was measured at intervals of 0.5 seconds for 20 minutes using a fluorescence plate reader to measure the calcium spikes.
FIG. 1 is a graph showing the measurement results. The values in the graph indicate the mean value±the standard deviation. […]

Where [3] appears, read: spheroid of 4,000 cells, compared with 16,000 cells.
Setting [4] is: spheroid of 4,000 cells, Experimental Examples 2-3, FIG. 2-3, chlorpromazine at 1 μM and 3 μM.
Where [5] appears, read: spheroid of 8,000 cells, Experimental Examples 2-3, FIG. 2-3, chlorpromazine at 1 μM and 3 μM.
[6] abbreviates: spheroid of 16,000 cells, Experimental Examples 2-3, FIG. 2-3, chlorpromazine at 1 μM and 3 μM.

Take `N#Cc1cc2c(cc1[N+](=O)[O-])=NC(=O)C(=O)N=2` [CNQX, 6-cyano-7-nitroquinoxaline-2,3-dione]: in experiment [1] (setting [3]), the “relative value (log 2) of a change in number of the calcium spikes (DMSO = 0)” value is “the action was exhibited at a lower concentration and a stronger action was exhibited at 4,000 cells in a concentration-dependent manner”.
`NCCCC(=O)O` [GABA, γ-aminobutyric acid]: the “relative value (log 2) of a change in number of the calcium spikes (DMSO = 0)” value in experiment [1] (setting [3]) is “the action was exhibited at a lower concentration and a stronger action was exhibited at 4,000 cells in a concentration-dependent manner”.
Turning to `CN1CCc2cc3c(cc2[C@H]1[C@@H]1OC(=O)c2c1ccc1c2OCO1)OCO3` [bicuculine], the entries for the “relative value (log 2) of a change in number of the calcium spikes (DMSO = 0)” value in experiment [1] (setting [3]) and in experiment [1] (spheroid of 16,000 cells) were “drug responsiveness was exhibited in a concentration-dependent manner” and “no drug response was observed”, respectively. The “relative value of the number of the calcium spikes (DMSO set to 100%)” value in experiment [1] (setting [4]) is reported as “an increase in the number of the calcium spikes was observed in a concentration-dependent manner”; in experiment [1] (setting [5]), “a significant response was not observed”; in experiment [1] (spheroid of 8,000 cells, drug at 30 μM, Experimental Example 3, FIG. 3), “a tendency of an increase in the number of the calcium spikes was observed”; in experiment [1] (setting [6]) it was “an increase in the number of the calcium spikes was not observed at any concentration”.
As for `NC(=O)N1c2ccccc2C=Cc2ccccc21` [carbamazepine], the “relative value (log 2) of a change in number of the calcium spikes (DMSO = 0)” value in experiment [1] (setting [3]) is “the action was exhibited at a lower concentration and a stronger action was exhibited at 4,000 cells in a concentration-dependent manner”.
For the molecule `CN(C)CCCN1c2ccccc2Sc2ccc(Cl)cc21` [chlorpromazine, Chlorpromazine], the “number of the calcium spikes (proportion of change vs DMSO)” value in experiment [2] (2D culture, 10,000 nerve cells and 2,500 astrocytes per well) is reported as “the number of the calcium spikes decreased in a drug concentration-dependent manner”. Further, in experiment [2] (2D culture), the “concentration at which the calcium spikes disappeared” value amounted to 3 µM. Further, the “change in number of the calcium spikes (vs DMSO)” value in experiment [1] (3D spheroid, 8,000 nerve cells + 8,000 astrocytes, cultured 6 weeks, Experimental Example 1, FIG. 1) is reported as “no change in number of the calcium spikes was observed at any drug concentration”. Besides, in experiment [1] (setting [3]), the “relative value (log 2) of a change in number of the calcium spikes (DMSO = 0)” value is “the action was exhibited at a lower concentration and a stronger action was exhibited at 4,000 cells in a concentration-dependent manner”. Further, the “relative value of the number of the calcium spikes (DMSO set to 100%)” value in experiment [1] (setting [4]) is on record as “showed a concentration-dependent response”; in experiment [1] (setting [5]), “did not show a concentration-dependent response”; in experiment [1] (setting [6]), “did not show a concentration-dependent response”.
In the case of `NCCc1ccc(O)c(O)c1` [dopamine], in experiment [1] (setting [3]), the “relative value (log 2) of a change in number of the calcium spikes (DMSO = 0)” value was “the action was exhibited at a lower concentration and a stronger action was exhibited at 4,000 cells in a concentration-dependent manner”.
